Laboratory results as given in patent US20040029208A1, “Assay method and kit for testing biological material for exposure to stress using biomarkers” (priority 2000, published 2004).

Tests used:
Format in all cases: in vivo
Rumex crispus = test: TLC phytochemical changes after Roundup Bio (sensitivity)
From the text: (§1) Glyphosate (Roundup Bio (360 g L1:) was supplied by Monsanto Denmark ANS. Recommended field dose =1,44 kg a.i. ha^−1. In all the experiments, an automatic sprayer (designed in Denmark by Jens Kristensen 1994) was used where the herbicide application is achieved by moving boom equipment with two ordinary hydraulic flat fan nozzles (Hardl 4110-16). Two pots per spray event were placed in the middle of the spray chamber at 50 cm distance from the nozzle, delivering 200 L of water per hectare with a desired herbicide concentration (working pressure 2 bars; speed of spray boom=4.7 km h^1). The spraying was performed starting with the lowest concentration first, progressing towards the highest concentration. Between each herbicide, the sprayer was thoroughly rinsed several times with water. The control plants were sprayed with water.
(§2) The study was performed in greenhouse between August and December 1998 for all species. Degree days (=(Present temperature in ° C.-5° C.)×amount of days) were used as time scale. The plants were 226-378 degree days (30 days) old before exposure. The plants were exposed to 0, 1. 10 and 100% of the recommended field dose of Roundup Bio. Before the harvest, the plants were evaluated for visual effects using the rating chart described in Table 1 (Hamit et al., 1977). A rating of zero indicates full growth and vigour (compared with control plants) and a rating of nine, no growth/mortality. The plants were all harvested 180 degree days (14 days) after exposure. The plants were lyophilizied and k pt dry and in dark before phytochemical analysis.
(§3) 250 mg lyophilized plant material was crushed and extracted with 5.00 ml 75% ethanol in water in ultrasonic bath for two hours. Ice was added to the bath every 30 minutes to keep the temperature constant during the extraction. The extracts wer transferred to vials and centrifuged (3000 g per min.) for 10 minut s. The extract was immediately used for phytochemical analysis.
(§4) Frozen or fresh plant material was pressed for plant sap using a hand press. The sap was transferred to vials and centrifuged (3000 g per min.) for 10 minutes. The extract was immediately used for phytochemical analysis.
(§5) Rf-values (defined as, Rf-value=Distance of spot centre from start point/Distance of solvent front from start point (Stahl, 1969)) were determined for all phytochemical compounds.
(§6) In table 2 the sensitivity of the different plant species to Roundup Bio is presented. The sensitivity of the plant species was evaluated on basis of the presence of the most frequent pattern, the lowest concentration of exposure, and the visual effect of the exposed plants. In table 2, the plant species are divided into three groups: Group I: Very sensitive plant species; Group II: Medium sensitive plant species, and Group III: Less sensitive plant species. In Group I, a phytochemical pattern was present in plants exposed to 1% of the recommended field dose of Roundup Bio with a visual effect from 0 to 4. In Group II, a phytochemical pattern was found in plants exposed to 1 to 10% of the recommended field dose of the herbicide with a visual effect from 0 to 5. Finally, Group III presents plant species containing a phytochemical pattern after exposure of 10% of the recommended field dose with a visual effect from 5 to 7.
(§7) Table 2: Sensitivity of plants exposed to glyphosate (Roundup Bio), based on presence of phytochemical changes in all the TLC-Systems at lowest dose of concentration (LC) of the herbicide in percent of field dose. The corresponding visual effect (VE) Is presented (see table 1).

Rudbeckia hirta = test: as above
From the text: as §1, §2, §3, §4, §5, §6, §7

Fallopia convolvulus = test: as above
From the text: as §1, §2, §3, §4, §5, §6, §7

Bellis perennis = test: as above
From the text: as §1, §2, §3, §4, §5, §6, §7

Leonorus carica = test: as above
From the text: as §1, §2, §3, §4, §5, §6, §7

Nepeta cataria = test: as above
From the text: as §1, §2, §3, §4, §5, §6, §7

Papaver rhoeas = test: as above
From the text: as §1, §2, §3, §4, §5, §6, §7

Sinapis avensis = test: as above
From the text: as §1, §2, §3, §4, §5, §6, §7

Mentha spicata = test: as above
From the text: as §1, §2, §3, §4, §5, §6, §7

all tested plants = test: Most frequent TLC biomarker pattern of all tested plants; settings: stability experiments
From the text: By th term “standard biomarker pattern” is m ant a patternd of the composition of compounds present in a plant after exposure to known stress factors. According to th invention th biomarker pattern of the unknown compounds, i.e. the above described biomarker pattern, is correlated to a standard biomarker pattern, also referred to as a “most frequent pattern”. In order to interpret the biomarker patterns of test material that has been exposed to unknown stress factors, it is a prerequisite to provide standard biomarker patterns, i.e. most frequent patterns. By the latter is meant the same type of biomarker pattern obtained after exposure to a stress factor in more than 50% of the cases of exposure, such as 60%, for example 70%, such as 80%, for example 90%. The biomarker patterns of test material that has been exposed to unknown stress factors may then be correlated to standard biomarker patterns. The standard biomarker pattern may be obtained for one particular stress factor or for a combination of at least two different stress factors.
The study was performed in greenhouse between August and December 1998 for all species. Degree days (=(Present temperature in ° C.-5° C.)×amount of days) were used as time scale. […] Before the harvest, the plants were evaluated for visual effects using the rating chart described in Table 1 (Hamit et al., 1977). […]

With `O=C(O)CNCP(=O)(O)O` [Glyphosate] the “LC: lowest dose of concentration of the herbicide with phytochemical changes in all the TLC-Systems” value (Rumex crispus) was 1% of field dose, the “LC: lowest dose of concentration of the herbicide with phytochemical changes in all the TLC-Systems” value (Rudbeckia hirta) was 1% of field dose and the “LC: lowest dose of concentration of the herbicide with phytochemical changes in all the TLC-Systems” value (Fallopia convolvulus) was 1% of field dose. For the same compound, the “LC: lowest dose of concentration of the herbicide with phytochemical changes in all the TLC-Systems” value (Bellis perennis) was 10% of field dose, the “LC: lowest dose of concentration of the herbicide with phytochemical changes in all the TLC-Systems” value (Leonorus carica) was 10% of field dose and the “LC: lowest dose of concentration of the herbicide with phytochemical changes in all the TLC-Systems” value (Nepeta cataria) was 10% of field dose. For the same compound, the “LC: lowest dose of concentration of the herbicide with phytochemical changes in all the TLC-Systems” value (Papaver rhoeas) was 1% of field dose, the “LC: lowest dose of concentration of the herbicide with phytochemical changes in all the TLC-Systems” value (Sinapis avensis) was 10% of field dose and the “LC: lowest dose of concentration of the herbicide with phytochemical changes in all the TLC-Systems” value (Mentha spicata) was 10% of field dose. For the same compound, the “time after exposure at which phytochemical changes were seen” value (all tested plants; 60 degree days) was 4 days and the “time after exposure up to which a phytochemical pattern was present” value (all tested plants; 480 degree days) was “up to 32 days”.
